From patent US20220226334A1, “ANTIBODY CONJUGATE AND APPLICATION OF PHARMACEUTICAL COMPOSITION THEREOF” (SHANGHAI FUDAN-ZHANGJIANG BIO-PHARMACEUTICAL CO., LTD., priority 2019, published 2022)
Where two headings read alike, the source gives them in different places. Where a SMILES comes first, the peptide text is derived from it. [ ]: non-standard residue; d: D form. The star is where a group is joined. Dolaproine = CO[C@@H]([C@@H]1CCCN1)[C@@H](C)C(=O)O; Dil = CC[C@H](C)[C@H](NC)[C@@H](CC(=O)O)OC; X1 = C[C@@H](N*)[C@@H](O)c1ccccc1; NMeV = CN[C@H](C(=O)O)C(C)C

What was measured:
Karpas299 cells = test: In vitro killing of Karpas299 cells (AlamarBlue), single drugs and combinations; format: cell-based, human
Experimental: (§1) After the sample was added, it was cultured in 5% CO2 at 37° C. for 77±2 hours, stained with AlamarBlue fluorescent dye, cultured for 19±2 hours, and read at 530 nm (excitation)/590 nm (emission). The IC50 value of the semi-inhibitory concentration of each sample was calculated by fitting with the computer's four-parameter equation software.
(§2) Cell proliferation method was used to investigate the killing effect of drugs on cells.

[1] = test system: Hodgkin lymphoma cells L540; test: In vitro killing of L540 cells, single drugs and combinations; format: cell-based
Experimental: as §1, §2

[2] = test system: Hodgkin lymphoma cells L428; test: In vitro killing of L428 cells (AlamarBlue), single drugs, MDR1 inhibitor, combinations
Experimental: Cell proliferation method was used to investigate the killing effect of drugs on cells. L428 cells were inoculated in 96-well cell culture plates at 5×10^4 cell/mL, i.e., 5000 cells per well. Doxorubicin was diluted to 259.5 ng/mL, 129.8 ng/mL, 64.88 ng/mL, 32.44 ng/mL, 21.63 ng/mL, 14.42 ng/mL, 9.611 ng/mL, 3.844 ng/mL, 1.538 ng/mL using cell culture medium, for a total of 9 concentrations. Serial dilutions of Doxorubicin were added to the culture plates of the seeded plates and incubated for 77±2 hours at 37° C. in a 5% CO2 incubator. The samples were stained with AlamarBlue fluorescent dye and incubated at 37° C. in a 5% CO2 incubator for 19±2 hours. Readings were performed at wavelength of 50 nm (excitation)/590 nm (emission). The IC50 value of Doxorubicin was calculated by fitting it with four-parameter equation.
Calcusyn, the software for calculating the combination index, was chosen to calculate the CI of the combination index at different killing levels,

[3] = test system: Hodgkin lymphoma cells L428; conditions: known in the art; cited from earlier work
[4] = molecular target: MDR1 (multidrug resistance gene 1 product, CD243, ABC B1) on the cell surface (UniProt P08183); test: flow cytometry, PE-labelled UIC2 on HH cells (cells other than L428 did not express MDR1); PBS as negative control
[5] = molecular target: MDR1 (multidrug resistance gene 1 product, CD243, ABC B1) on the cell surface (UniProt P08183); test: flow cytometry, PE-labelled UIC2 on Karpas 299 cells (cells other than L428 did not express MDR1); PBS as negative control
[6] = molecular target: MDR1 (multidrug resistance gene 1 product, CD243, ABC B1) on the cell surface (UniProt P08183); test: flow cytometry, PE-labelled UIC2 on L428 cells (text: L428 specifically expressed MDR1 on the surface); PBS as negative control
[7] = molecular target: MDR1 (multidrug resistance gene 1 product, CD243, ABC B1) on the cell surface (UniProt P08183); test: flow cytometry, PE-labelled UIC2 on L540 cells (cells other than L428 did not express MDR1); PBS as negative control
[8] = Homo sapiens, KARPAS-299, Karpas299 cells, Table 13, read-out: IC50 of single drug
[9] = Homo sapiens, L-540, L540, Tables 8 and 13, read-out: IC50 of single drug
[10] = Homo sapiens, L-428, read-out: IC50 of single drug

| Compound | IC50 (Karpas299 cells; [8]) | IC50 [1, 9] | IC50 [2, 10] | also measured |
| --- | --- | --- | --- | --- |
| C[C@]12C=CC(=O)C=C1CC[C@@H]1[C@@H]2C(=O)C[C@@]2(C)[C@H]1CC[C@]2(O)C(=O)CO [Prednisone] | 187 µM | 98.5 µM | 113 µM | – |
| CC[C@H](C)[C@@H]([C@@H](CC(=O)N1CCC[C@H]1[C@H](OC)[C@@H](C)C(=O)N[C@H](C)[C@@H](O)c1ccccc1)OC)N(C)C(=O)[C@@H](NC(=O)[C@@H](NC)C(C)C)C(C)C [MMAE] (H-[NMeV]V[Dil][Dolaproine]-X1) | – | – | – | Sensitivity of L428 to the small molecule (in words) [3]: sensitive |
| COc1cccc2c1C(=O)c1c(O)c3c(c(O)c1C2=O)C[C@@](O)(C(=O)CO)C[C@@H]3O[C@H]1C[C@H](N)[C@H](O)[C@H](C)O1 [Doxorubicin] | 0.0405 µM | 0.0585 µM | 0.0278 µM | – |
| COc1cc([C@@H]2c3cc4c(cc3[C@@H](O[C@@H]3O[C@@H]5CO[C@@H](C)O[C@H]5[C@H](O)[C@H]3O)[C@H]3COC(=O)[C@H]23)OCO4)cc(OC)c1O [Etoposide] | 64.1 µM | 30.1 µM | 54.2 µM | – |
| CD243 (ABC B1) monoclonal antibody (UIC 2), PE (ThermoFisher) | – | – | – | MDR1 binding ratio [4]: 2.6; MDR1 binding ratio [5]: 1.2; MDR1 binding ratio [6]: 16.1; MDR1 binding ratio [7]: 1.2 |
| CNNCc1ccc(C(=O)NC(C)C)cc1 [Procarbazine] | 26.9 µM | 24.7 µM | 500 µM | – |
| O=P1(N(CCCl)CCCl)NCCCO1 (stereo not shown) [Cyclophosphamide] | – | – | 590 µM | IC50 (Karpas299 cells; Homo sapiens, KARPAS-299, read-out: IC50 of single drug): 385 µM; IC50 ([1]; Homo sapiens, L-540, read-out: IC50 of single drug): 121 µM |
| CC[C@]1(O)C[C@H]2CN(CCc3c([nH]c4ccccc34)[C@@](C(=O)OC)(c3cc4c(cc3OC)N(C=O)[C@H]3[C@@](O)(C(=O)OC)[C@H](OC(C)=O)[C@]5(CC)C=CCN6CC[C@]43[C@@H]65)C2)C1 [Vincristine] | 0.0185 µM | 0.000772 µM | 0.0281 µM | – |
| CN(C)/N=N/c1[nH]cnc1C(N)=O [Dacarbazine] | – | 31.3 µM | 178 µM | – |
| Bleomycin | – | – | – | IC50 (Karpas299 cells; read-out: IC50 of single drug): 1.68 µM; IC50 ([1]; read-out: IC50 of single drug): 3.2 µM; IC50 ([2]; read-out: IC50 of single drug): 2.04 µM |
